According to PubChem BioAssay (NCI):
“And” between values parts separate entries of the source, which are not always exact repeats. Identical values can stand only once.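 Exposure lasted 48 hours, with cells grown in 96-well plates and compounds tested at five concentrations. GI50 is the concentration that inhibits growth by half. TGI denotes the concentration required for complete inhibition of growth.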

Tests used:
Assay in all cases: NCI-60 cell line screen, 48 h
MDA-MB-435 = test system: MDA-MB-435
MOLT-4 leukemia = test system: MOLT-4 leukemia
NCI-H23 lung = test system: NCI-H23 lung
OVCAR-5 ovarian = test system: OVCAR-5 ovarian
COLO 205 colon = test system: COLO 205 colon
ACHN renal = test system: ACHN renal
HOP-62 NSCLC = test system: HOP-62 NSCLC
SNB-75 CNS = test system: SNB-75 CNS
HL-60(TB) leukemia = test system: HL-60(TB) leukemia
OVCAR-3 ovarian = test system: OVCAR-3 ovarian
A549 NSCLC = test system: A549 NSCLC
KM12 colon = test system: KM12 colon
SK-OV-3 ovarian = test system: SK-OV-3 ovarian
LOX IMVI melanoma = test system: LOX IMVI melanoma
DU-145 prostate = test system: DU-145 prostate
NCI-H460 lung = test system: NCI-H460 lung
CAKI-1 renal = test system: CAKI-1 renal
OVCAR-8 ovarian = test system: OVCAR-8 ovarian
UACC-62 melanoma = test system: UACC-62 melanoma
SF-268 CNS = test system: SF-268 CNS
SW-620 colon = test system: SW-620 colon
786-0 renal = test system: 786-0 renal
NCI-H522 lung = test system: NCI-H522 lung
TK-10 renal = test system: TK-10 renal
K-562 leukemia = test system: K-562 leukemia
MDA-MB-231 breast = test system: MDA-MB-231 breast
SK-MEL-2 melanoma = test system: SK-MEL-2 melanoma
MCF7 breast = test system: MCF7 breast
SR leukemia = test system: SR leukemia
A498 renal = test system: A498 renal
MDA-N = test system: MDA-N
M14 melanoma = test system: M14 melanoma
NCI/ADR-RES ovarian = test system: NCI/ADR-RES ovarian
UACC-257 melanoma = test system: UACC-257 melanoma
T-47D breast = test system: T-47D breast
SNB-19 CNS = test system: SNB-19 CNS
SK-MEL-5 melanoma = test system: SK-MEL-5 melanoma
U251 CNS = test system: U251 CNS
EKVX NSCLC = test system: EKVX NSCLC
HCC-2998 colon = test system: HCC-2998 colon
SN12C renal = test system: SN12C renal
RPMI-8226 leukemia = test system: RPMI-8226 leukemia
NCI-H226 lung = test system: NCI-H226 lung
MALME-3M melanoma = test system: MALME-3M melanoma
IGROV1 ovarian = test system: IGROV1 ovarian
HOP-92 NSCLC = test system: HOP-92 NSCLC
SF-539 CNS = test system: SF-539 CNS
HS 578T breast = test system: HS 578T breast
PC-3 prostate = test system: PC-3 prostate
HCT-15 colon = test system: HCT-15 colon
HCT-116 colon = test system: HCT-116 colon
CCRF-CEM leukemia = test system: CCRF-CEM leukemia
OVCAR-4 ovarian = test system: OVCAR-4 ovarian
RXF 393 renal = test system: RXF 393 renal
UO-31 renal = test system: UO-31 renal
SF-295 CNS = test system: SF-295 CNS
SK-MEL-28 melanoma = test system: SK-MEL-28 melanoma
BT-549 breast = test system: BT-549 breast
HT29 colon = test system: HT29 colon

SMILES: CC[C@@]1(O)C(=O)OCc2c1cc1n(c2=O)Cc2c-1nc1cc3c(cc1c2C)OCO3
- GI50 (MDA-MB-435): 1.6 nM
- GI50 (MOLT-4 leukemia): < 0.1 nM
- GI50 (NCI-H23 lung): < 0.1 nM
- TGI (NCI-H23 lung): 105 nM and 11.6 nM
- GI50 (OVCAR-5 ovarian): 69.4 nM
- TGI (OVCAR-5 ovarian): 37.9 nM
- GI50 (COLO 205 colon): 102 nM
- TGI (COLO 205 colon): > 100000 nM
- GI50 (ACHN renal): < 0.1 nM
- TGI (ACHN renal): 60.1 nM
- GI50 (HOP-62 NSCLC): < 0.1 nM
- TGI (HOP-62 NSCLC): 314 nM and 238 nM
- GI50 (SNB-75 CNS): 1.23 nM
- TGI (SNB-75 CNS): 947 nM
- GI50 (HL-60(TB) leukemia): < 0.1 nM
- GI50 (OVCAR-3 ovarian): 75.8 nM and 11.7 nM
- TGI (OVCAR-3 ovarian): > 100000 nM
- GI50 (A549 NSCLC): < 0.1 nM
- TGI (A549 NSCLC): 73.7 nM
- GI50 (KM12 colon): 24.1 nM
- TGI (KM12 colon): > 100000 nM
- GI50 (SK-OV-3 ovarian): < 0.1 nM
- TGI (SK-OV-3 ovarian): 250 nM and 331 nM
- GI50 (LOX IMVI melanoma): < 0.1 nM
- TGI (LOX IMVI melanoma): 31.9 nM and 30.6 nM
- GI50 (DU-145 prostate): < 0.1 nM
- TGI (DU-145 prostate): > 100000 nM
- GI50 (NCI-H460 lung): < 0.1 nM
- TGI (NCI-H460 lung): 86.8 nM and 13.5 nM
- GI50 (CAKI-1 renal): < 0.1 nM
- TGI (CAKI-1 renal): 235 nM and 122 nM
- GI50 (OVCAR-8 ovarian): < 0.1 nM
- GI50 (UACC-62 melanoma): < 0.1 nM
- TGI (UACC-62 melanoma): 14.3 nM
- GI50 (SF-268 CNS): 1.08 nM
- TGI (SF-268 CNS): 13.6 nM
- GI50 (SW-620 colon): < 0.1 nM
- TGI (SW-620 colon): > 100000 nM
- GI50 (786-0 renal): < 0.1 nM
- TGI (786-0 renal): 8150 nM
- GI50 (NCI-H522 lung): 0.159 nM
- GI50 (TK-10 renal): 43 nM and 31.1 nM
- TGI (TK-10 renal): 3560 nM
- GI50 (K-562 leukemia): 0.488 nM
- TGI (K-562 leukemia): > 100000 nM
- GI50 (MDA-MB-231 breast): 14.7 nM
- TGI (MDA-MB-231 breast): > 100000 nM
- TGI (SK-MEL-2 melanoma): 27.1 nM
- GI50 (MCF7 breast): < 0.1 nM
- TGI (MCF7 breast): 299 nM
- GI50 (SR leukemia): < 0.1 nM
- TGI (SR leukemia): 0.207 nM
- GI50 (A498 renal): 0.257 nM
- TGI (A498 renal): 27.2 nM and 28.5 nM
- TGI (MDA-N): > 100000 nM
- GI50 (M14 melanoma): < 0.1 nM
- TGI (M14 melanoma): 1010 nM
- GI50 (NCI/ADR-RES ovarian): < 0.1 nM
- TGI (NCI/ADR-RES ovarian): > 100000 nM
- GI50 (UACC-257 melanoma): 15.9 nM
- TGI (UACC-257 melanoma): 278 nM
- GI50 (T-47D breast): < 0.1 nM
- GI50 (SNB-19 CNS): 0.473 nM
- TGI (SNB-19 CNS): 13.1 nM
- GI50 (SK-MEL-5 melanoma): < 0.1 nM
- TGI (SK-MEL-5 melanoma): 55.9 nM
- GI50 (U251 CNS): < 0.1 nM
- TGI (EKVX NSCLC): 818 nM
- GI50 (HCC-2998 colon): 1.09 nM
- TGI (HCC-2998 colon): 83.7 nM and 141 nM
- GI50 (SN12C renal): < 0.1 nM
- TGI (SN12C renal): 27000 nM
- GI50 (RPMI-8226 leukemia): < 0.1 nM
- TGI (RPMI-8226 leukemia): 230 nM
- GI50 (NCI-H226 lung): < 0.1 nM
- TGI (NCI-H226 lung): 19.5 nM
- GI50 (MALME-3M melanoma): 0.457 nM
- TGI (MALME-3M melanoma): 3920 nM
- GI50 (IGROV1 ovarian): 35.1 nM
- TGI (HOP-92 NSCLC): 78.2 nM
- GI50 (SF-539 CNS): < 0.1 nM
- TGI (SF-539 CNS): 0.149 nM
- GI50 (HS 578T breast): 37400 nM
- TGI (HS 578T breast): > 100000 nM
- GI50 (PC-3 prostate): 25.4 nM
- TGI (PC-3 prostate): > 100000 nM
- GI50 (HCT-15 colon): 9.36 nM
- TGI (HCT-15 colon): > 100000 nM
- GI50 (HCT-116 colon): 18.1 nM
- TGI (HCT-116 colon): 15100 nM
- GI50 (CCRF-CEM leukemia): < 0.1 nM
- GI50 (OVCAR-4 ovarian): 24.4 nM and 17.4 nM
- TGI (OVCAR-4 ovarian): > 100000 nM
- GI50 (RXF 393 renal): 0.755 nM
- TGI (RXF 393 renal): 141 nM and 17.5 nM
- GI50 (UO-31 renal): < 0.1 nM
- TGI (UO-31 renal): 41.5 nM
- GI50 (SF-295 CNS): < 0.1 nM
- GI50 (SK-MEL-28 melanoma): 39.5 nM and 76.5 nM
- TGI (SK-MEL-28 melanoma): > 100000 nM
- GI50 (BT-549 breast): 20.5 nM
- GI50 (HT29 colon): < 0.1 nM
- TGI (HT29 colon): > 100000 nM
